The source of these data is patent US5679671A, “Amino acid derivative” (Eisai Co., Ltd., priority 1993, dated 1997).

The target in experiment [1] is T1, ACE (Rattus norvegicus, UniProt P47820).
T1 construct: membrane fraction prepared from rat lung; from tissue; host or cells: rat lung, membrane fraction (method of Wu-Wong et al.)
T1 sequence (P47820 36-1313): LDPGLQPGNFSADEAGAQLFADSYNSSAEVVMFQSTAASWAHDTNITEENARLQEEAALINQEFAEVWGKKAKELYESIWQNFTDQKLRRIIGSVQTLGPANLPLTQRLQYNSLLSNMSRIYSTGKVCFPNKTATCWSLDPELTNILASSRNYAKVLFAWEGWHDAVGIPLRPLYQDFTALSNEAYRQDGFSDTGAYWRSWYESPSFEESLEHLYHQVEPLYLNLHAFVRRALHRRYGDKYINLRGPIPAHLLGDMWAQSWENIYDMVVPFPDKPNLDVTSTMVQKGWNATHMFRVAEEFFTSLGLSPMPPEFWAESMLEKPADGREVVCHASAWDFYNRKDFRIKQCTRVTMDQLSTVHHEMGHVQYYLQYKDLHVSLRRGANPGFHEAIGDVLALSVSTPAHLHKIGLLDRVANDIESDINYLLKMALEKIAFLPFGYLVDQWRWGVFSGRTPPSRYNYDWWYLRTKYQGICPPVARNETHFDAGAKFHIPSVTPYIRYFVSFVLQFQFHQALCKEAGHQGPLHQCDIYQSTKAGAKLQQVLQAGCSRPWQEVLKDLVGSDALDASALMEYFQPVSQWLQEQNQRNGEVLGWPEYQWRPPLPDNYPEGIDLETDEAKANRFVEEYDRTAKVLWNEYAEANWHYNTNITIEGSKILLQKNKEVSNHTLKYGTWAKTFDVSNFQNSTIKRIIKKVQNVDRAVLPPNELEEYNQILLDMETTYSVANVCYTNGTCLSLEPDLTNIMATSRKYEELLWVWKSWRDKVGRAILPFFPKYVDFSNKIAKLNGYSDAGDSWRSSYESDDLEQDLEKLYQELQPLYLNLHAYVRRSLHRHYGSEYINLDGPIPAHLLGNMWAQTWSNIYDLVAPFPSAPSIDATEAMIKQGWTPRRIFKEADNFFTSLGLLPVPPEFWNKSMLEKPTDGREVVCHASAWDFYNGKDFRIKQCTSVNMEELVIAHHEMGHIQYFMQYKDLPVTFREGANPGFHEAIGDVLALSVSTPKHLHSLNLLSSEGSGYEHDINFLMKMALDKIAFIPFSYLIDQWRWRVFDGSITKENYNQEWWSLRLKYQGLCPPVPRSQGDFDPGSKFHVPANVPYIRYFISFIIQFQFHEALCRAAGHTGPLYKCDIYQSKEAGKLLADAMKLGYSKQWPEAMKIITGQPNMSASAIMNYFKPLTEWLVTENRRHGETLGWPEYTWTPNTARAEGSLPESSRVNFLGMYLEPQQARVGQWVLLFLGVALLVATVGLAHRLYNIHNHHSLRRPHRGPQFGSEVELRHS
Briefly: ACE inhibition activity using rat lung (Experiment A-2). In kind it is biochemical. The settings on record: rat lung membrane fraction, borate buffer pH 8.3. As to the method:
The ACE inhibition activity was determined by using a membrane fraction prepared from rat lung in accordance with the method of Wu-Wong et al. (Characterization of Endthelin Converting Enzyme in Rat Lung., Junshyum R. Wu-Wong, Gerald, P. Budzik, Edward M. Devine and Terry J. Opgenorth, Biochem. Biophys. Res. Commun., 1990, 171, 1291-1296.).
The ACE activity was determined with the use of a modification (modified to a borate buffer, pH 8.3) of the method of Cushman and Cheung (Spectrophotometric Assay and Properties of the Angiotensin-Converting Enzyme of Rabbit Lung., Cushman, D. W. and Cheung H. S., 1971, 20, 1637-1648.).
In the presence of ACE, the hippurate liberated from hippuryl-histidyl-leucine (Hippuryl-His-Leu (PeptideInstitute Inc., Japan)) was extracted with ethyl acetate and then the absorbance was measured at a wavelength of 228 nm.
With respect to the ACE inhibition activity, the inhibitor was added to the experimental system as described above in such a manner as to give the final concentrations of 1, 3, 10, 30, 100, 300 and 1000 nM, an inhibition curve was prepared, and then the concentration at which 50% inhibition was achieved was taken as IC50.

Experiment [2] concerns the target T2, vasopressin (V2) receptor (Rattus norvegicus, UniProt Q00788).
T2 construct: rat kidney (V2); from tissue; host or cells: rat kidney membranes
Put plainly: V2 receptor binding assay, rat kidney membrane (Experiment F-2). The settings on record: [3H]-Arg-vasopressin, pH 7.4. As to the method:
Membrane specimens of rat liver (V1) and rat kidney (V2) were used. 100,000 counts (3.69 nM) of [^3 H]-Arg-vasopressin, 25 μg (1 mg protein/ml) of each membrane specimen and a test medicament (10^-7 to 10^-5 M) were incubated in 250 μl in total of an assay buffer (pH=7.4) containing 10 mM of MgCl2, 2 mM of EGTA and 20 mM of HEPES at 4° C. over day and night. Then, the incubation was washed with 5-ml portions of the buffer 5 times to thereby separate the membrane specimen binding to vasopressin followed by filtration with the use of a glass filter (GF/F). This glass filter was dried for about 3 hours and mixed with a cocktail for liquid scintillation (10 ml, ACSII). After allowing to stand overnight, the amount of the [^3 H]-Arg-vasopressin binding to the membrane was determined with a liquid scintillation counter and the inhibition ratio was calculated in accordance with the following formula: […]
(§1) B1; the amount of [^3 H]-Arg-vasopressin binding to the membrane in the presence of excessive vasopressin (10 μM)
(§2) C0; the amount of [^3 H]-Arg-vasopressin binding to the membrane in the absence of the test medicament and
(§3) C1; the amount of [^3 H]-Arg-vasopressin binding to the membrane in the presence of both the test medicament in a known amount and [^3 H]-Arg-vasopressin. […]

The target of experiment [3] is T3, vasopressin (V1) receptor (Rattus norvegicus, UniProt P30560).
T3 construct: Membrane specimens of rat liver (V1); from tissue; host or cells: rat liver membranes
T3 sequence (P30560 whole entry): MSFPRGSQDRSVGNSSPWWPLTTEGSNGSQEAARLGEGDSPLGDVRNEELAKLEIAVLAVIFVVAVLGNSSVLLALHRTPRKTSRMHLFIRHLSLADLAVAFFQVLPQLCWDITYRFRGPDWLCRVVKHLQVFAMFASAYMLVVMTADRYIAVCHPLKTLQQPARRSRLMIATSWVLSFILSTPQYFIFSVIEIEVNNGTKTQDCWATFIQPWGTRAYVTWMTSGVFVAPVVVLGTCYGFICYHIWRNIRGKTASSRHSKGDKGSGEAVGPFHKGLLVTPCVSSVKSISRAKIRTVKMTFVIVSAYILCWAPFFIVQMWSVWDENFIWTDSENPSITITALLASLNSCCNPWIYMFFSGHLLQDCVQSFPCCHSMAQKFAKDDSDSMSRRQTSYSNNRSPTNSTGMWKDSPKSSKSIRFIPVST
Put plainly: V1 receptor binding assay, rat liver membrane (Experiment E-3). The settings on record: [3H]-Arg-vasopressin, pH 7.4. The protocol: Membrane specimens of rat liver (V1) and rat kidney (V2) were used. 100,000 counts (3.69 nM) of [^3 H]-Arg-vasopressin, 25 μg (1 mg protein/ml) of each membrane specimen and a test medicament (10^-7 to 10^-5 M) were incubated in a total volume of 250 μl of an assay buffer (pH=7.4) containing 10 mM of MgCl2, 2 mM of EGTA and 20 mM of HEPES at 4° C. over day and night. Then, the incubation was washed with 5-ml portions of the buffer 5 times to thereby separate the membrane specimen binding to vasopressin followed by filtration with the use of a glass filter (GF/F). This glass filter was dried for about 3 hours and mixed with a cocktail for liquid scintillation (10 ml, ACSII). After allowing to stand overnight, the amount of the [^3 H]-Arg-vasopressin binding to the membrane was determined with a liquid scintillation counter and the inhibition ratio was calculated in accordance with the following formula: […]
as §1, §2, §3

Where only a bound is given, the exact number is not on record here.

For orientation: IC50 means the concentration needed to halve the response being measured. The low end stands for greater potency, the high end for weaker potency.

T2 sequence (Q00788 whole entry): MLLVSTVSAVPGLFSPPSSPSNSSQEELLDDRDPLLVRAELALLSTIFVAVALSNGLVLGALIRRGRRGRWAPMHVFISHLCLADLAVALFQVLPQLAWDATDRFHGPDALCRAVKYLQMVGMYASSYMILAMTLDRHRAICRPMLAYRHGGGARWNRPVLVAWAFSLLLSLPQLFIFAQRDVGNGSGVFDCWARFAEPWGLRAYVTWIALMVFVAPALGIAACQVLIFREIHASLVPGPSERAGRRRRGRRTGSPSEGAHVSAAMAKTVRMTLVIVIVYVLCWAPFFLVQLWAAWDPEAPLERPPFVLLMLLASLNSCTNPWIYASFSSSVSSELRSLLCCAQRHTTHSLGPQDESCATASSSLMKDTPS

In experiment [1], `CC[C@H](C)[C@H](S)C(=O)NC1CCc2ccccc2N(CC(=O)O)C1=O` (stereo partly drawn) [Example A-9, 1-Carboxymethyl-3-[(2S,3S)-2-mercapto-3-methylvarelylamino]-1H-[1]benzazepin-2-one] came in with an IC50 of 13 nM. In turn, `CC[C@H](C)[C@H](S)C(=O)N[C@H]1CCc2ccccc2N(CC(=O)O)C1=O` [Example A-11, (S)-3-[(2S,3S)-2-Mercapto-3-methylvarelylamino]-1-carboxymethyl-2,3,4,5-tetrahydro-1H-[1]benzazepin-2-one] yielded an IC50 in experiment [1] of 11 nM. In turn, `O=C(N[C@H]1CCC[C@H]2SC[C@@H](C(=O)O)N2C1=O)[C@@H](S)Cc1ccccc1` [Example F-17, [3R-[3α,6α(S*),9aβ]]-6-[[(S)-1-Oxo-2-thio-3-phenylpropyl]amino]-octahydro-5-oxothiazol[3,2-a]-azepine-3-carboxylic acid] yielded an IC50 in experiment [2] of 1390 nM. The molecule `CC(C)[C@H](S)C(=O)N[C@H]1Cc2ccc(-c3ccccc3)cc2[C@H]2CCC[C@@H](C(=O)O)N2C1=O` [Example E-10, [4S-[4α,7α(R*),12bβ]]-7-[(S)-2-Mercapto-3-methylbutyrylamino]-6-oxo-11-phenyl-1,2,3,4,6,7,8,12b-octahydropyrido[2,1-a][2]benzazepine-4-carboxylic acid] displayed an IC50 in experiment [3] not below 10000 nM.
